# Results taken from patent US11906529B1, “Methods for treatment and diagnosis of endometriosis” (Marshall University Research Corporation, priority 2018, dated 2024).
# Columns and labels:
# Ishikawa cells = experiment: Inhibitor study using MTT analysis on Ishikawa cells in the presence of PF; assay type: cell-based, human; details: 1% PF
# Experimental: It was more than 1000 fold selective for EZH2 over other histone methyltransferases, including both SET-domain-containing and non-SET domain-containing methyltransferases, as shown schematically in FIG. 6A. […] In this regard, an inhibitor study using MTT analysis was conducted according to the schematic of FIG. 7A. Various doses of GSK126 were tested on Ishikawa cells in the presence of PF: 100 nM, 500 nM, 1 μM, 2.5 μM, 5 μM, and 10 μM in DMSO. Cell growth and viability of cells was evaluated rather than just EZH2 expression. (FIGS. 7B-7C) 1 mM and 0.1 mM solutions of GSK126 were also created from serial dilutions of 10 mM GSK126. […] It was somewhat unclear, however, whether that the effect of the drug as the volume of the vehicle (DMSO) could have impacted the results.
# (§1) Cell treatment. Ishikawa cells (human endometrial cell line) or EOOF5 cells (primary endometrial cells from a patient without endometriosis, gift from Emory University) were cultured in T75 flasks in complete media (DMEM, 10% FCS, 1% P/S). Cells were treated with 1% PF (control and endo patients) in charcoal stripped media containing 0.1% FCS, for 48 hours. A subset of cells were also treated with GSK126 or EPZ-6438 (FIG. 15), at various concentrations for 24 hours. Cells were collected post-treatment for RNA (PCR) and protein analysis (Western blotting).
# EZH2 expression = experiment: mRNA analysis on Ishikawa cells treated with PF and/or GSK 126; assay type: cell-based, human; details: depending on order of drug treatment, compared with control or endo PF alone
# Experimental: as §1
# EOOF5 cells = experiment: xCELLigence cell index of primary endometrial cells treated with PF and/or drug; assay type: cell-based, human; details: for cell growth (% CI), PF and drug compared to PF alone: EOOF5 cells; for cell growth (% CI), PF and drug compared to PF alone / cell viability and growth in the presence of PF: 1% PF; for cell viability and growth in the presence of PF: human endometrial cells
# Experimental: as §1
# xCELLigence. EOOF5 cells (primary endometrial cells) was plated at 10,000 cells per well using xCELLigence technology. Plates that have gold electrodes attached to the bottom were utilized. The electrodes produce electrons, which interact with the solution, completing a circuit. As the number of adhered cells in the plate increases, the more this interferes with circuit completion. Cells were treated with either 1% control or endo PF alone or treated with PF for 24 hours before being treated with either 1 μM GSK, 2.5 μM GSK, or 2.5 μM EPZ. Cells were also treated with drug alone. % Cell Impedance (CI) was calculated compared to CF media.
# global trimethylation = details: reactivates silenced PRC2 genes; cited from earlier work
SMILES,"cell viability (Ishikawa cells; 500 nM, vehicle (DMSO) volume could have impacted the results)",cell growth (proliferation) (Ishikawa cells; GSK126 100 nM-10 μM in DMSO),EZH2 mRNA expression (EZH2 expression),"cell growth (% CI), drug added after PF pretreatment (EOOF5 cells; 1% PF first for 24 hours followed by drug for 48 hours)","cell growth (% CI), PF and drug compared to PF alone (EOOF5 cells)","% CI, drug first followed by PF (EOOF5 cells; GSK first for 24 hours, then 1% PF for another 48 hours)",cell viability and growth in the presence of PF (EOOF5 cells),global H2K37 trimethylation levels (global trimethylation)
CC[C@H](C)n1cc(C)c2c(C(=O)NCc3c(C)cc(C)[nH]c3=O)cc(-c3ccc(N4CCNCC4)nc3)cc21 [GSK 126],dip in viability,very little proliferation,bidirectional effect,able to lower the cell growth induced by PF,decrease in cell growth,significant decrease in % CI,concentration dependent decrease,inhibit global H2K37 trimethylation levels
CCN(c1cc(-c2ccc(CN3CCOCC3)cc2)cc(C(=O)NCc2c(C)cc(C)[nH]c2=O)c1C)C1CCOCC1 [EPZ-6438],–,–,–,–,decrease in cell growth,–,concentration dependent decrease,–
